The target in one data set is T1, acetylcholinesterase (Mus musculus, UniProt P21836).
T1 construct: from tissue; host or cells: mouse brain
T1 sequence (P21836 32-614): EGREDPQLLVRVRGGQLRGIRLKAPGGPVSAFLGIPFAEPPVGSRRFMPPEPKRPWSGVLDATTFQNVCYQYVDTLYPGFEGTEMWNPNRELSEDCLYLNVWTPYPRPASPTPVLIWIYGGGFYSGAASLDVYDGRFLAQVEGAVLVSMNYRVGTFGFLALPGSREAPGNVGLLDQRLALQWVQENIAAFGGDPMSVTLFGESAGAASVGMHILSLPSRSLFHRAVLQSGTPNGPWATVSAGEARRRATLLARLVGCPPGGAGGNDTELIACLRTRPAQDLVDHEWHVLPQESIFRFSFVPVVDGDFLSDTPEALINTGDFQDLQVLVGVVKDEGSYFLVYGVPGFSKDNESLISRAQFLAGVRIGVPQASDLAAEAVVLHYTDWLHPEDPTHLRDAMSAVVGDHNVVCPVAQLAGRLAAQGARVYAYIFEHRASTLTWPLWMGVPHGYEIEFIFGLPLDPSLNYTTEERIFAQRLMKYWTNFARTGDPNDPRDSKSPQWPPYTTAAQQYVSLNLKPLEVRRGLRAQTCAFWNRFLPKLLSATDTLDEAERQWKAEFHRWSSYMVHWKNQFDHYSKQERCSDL
The data set is described as follows: inhibition of acetylcholinesterase activity on the mouse brain after single doses. The note with it: for suppression of the enzymatic activity: even at higher doses; for duration of the inhibitory activity compared with physostigmine: mouse brain acetylcholinesterase; for inhibition of the acetylcholinesterase activity, on the mouse brain: single doses in the range 0.4 - 7 mg/kg. In kind it is in vivo.

The nature of data set [1]: antagonist effect on the stimulating effect of scopolamine (motor activity), ESE series. The note with it: oral administration of 2.5 mg; scopolamine 1 mg/kg. In kind it is in vivo. How it is done: This is countered by the oral administration of 2.5 mg of ESE001, ESE002, ESE003, ESE004.
Data set [2] in a line: pharmacokinetics in mouse after oral and intramuscular administration. Format: in vivo. How it is done: The kinetics of the four products to be considered, is studied in mouse after oral and intramuscular administration, of respectively 7 and 3.5 mg/kg respectively of ESE001, ESE002, ESE003, ESE004.
For data set [3], the system named is mouse. The data set is described as follows: analgesic activity, 2-phenylbenzoquinone test. In kind it is in vivo. The text has this: Expte. Biol. Med. 95, 729, (1957).]
The procedure followed represents a modification of the test developed by Hoffner [Dtsch. Med. Wschr. 55, 731 (1929)].

Data set [4] in a line: toxicity, LD50 i.p. (Table 1). In kind it is in vivo. The note with it: 50 % of the animals died within 24 hours from the administration; for LD50 at 24 h: in vivo, ip. The protocol: LD50 is determined for the dose (mg/kg) at which 50 % of the animals died within 24 hours from the administration.
Data set [5] concerns mouse. The data set is described as follows: spontaneous motility (Dews' method modified according to Carminati). Format: in vivo, mouse (SWISS strain). The note with it: for reduction of spontaneous motility: oral, starting from minimal doses of 3.5-5 mg/kg, on average; for minimal doses causing a marked reduction of spontaneous motility: orally administered. An excerpt: The Dews' method was utilized, as modified according to Carminati (Arch. Int. Pharmacodyn. et Thér. 181, 68,1969).

Data set [6] in a line: preliminary pharmacokinetics, plasma level by HPLC. Conditions: rats, 6.2 mg/kg/os. In kind it is in vivo, Wistar rats. An excerpt: The presence of the substance in the plasma was evidenced by HPLC. With this method, the identification threshold was 0.15 mcg per ml of plasma.
The nature of data set [7]: acute toxicity, oral LD50 in the mouse. The note with it: mouse, in vivo, po.
Excerpt: (§1) The mouse was used (Swiss strain having the average weight of the male mice being 26 g and 22 g that of the female mice: 5+5 animals per dose, observation period: 7days) The oral LD50 (suspension in 2% carboxymethylcellulose) were reported hereinbelow: Tab.2
The test system of data set [8] is acetylcholinesterase activity (AchE). The data set is described as follows: in vivo anticholinesterase activity (blood and brain, Ellman colorimetric method). Set-up: species or system Wistar male rats. The note with it: rats, oral, 1.5 to 4 mg/kg; sacrificed after 20, 60 and 120 minutes. How it is done: The derivatives, under question and physostigmine suspended in 2% carboxymethylcellulose, were orally administered to groups of Wistar male rats (average weight about 250 g).
On the base of the obtained results in preliminary trials, the doses utilized for the comparison were comprised beween 0.2 and 0.4 mg/kg for physostigmine and between 1.5 and 4 mg/kg for the eseroline derivatives under question.
The groups of treated rats were sacrificed after 20, 60, and 120 minutes and the blood and the brain of each animal were immediately cooled to 0°C and maintained at this temperature during the successive treatments.
The acetylcholinesterase activity (AchE) was determined by using the Ellman et al's quick colorimetric method (Biochem. Pharmacol., 7, 88, 1961) and it was expressed as enzymatic inhibition percentage.
Background: In Ellman's method for cholinesterases, released thiocholine reacts with DTNB.

Data set [9] deals with mouse. The data set is described as follows: acute toxicity, oral LD50 in the mouse. The note with it: oral, suspension in 2% carboxymethylcellulose, observation period 7 days.
Excerpt: as §1

The structures appear in SMILES notation. Some results are limits rather than exact numbers.

As usually defined, the LD50 is the dose at which mortality reaches 50%. For `CN1CC[C@@]2(C)c3cc(OC(=O)N4CCCC4)ccc3N(C)[C@@H]12` (relative stereo) [ESE001, (3-aS-cis)-1,2,3,3a,8,8a-hexahydro 1,3a,8-trimethylpyrrole [2,3-B]-indole 5-ol-1-pyrrolidinyl-carbamate ester], on acetylcholinesterase, the “suppression of the enzymatic activity” value is on record as “do not suppress the enzymatic activity”; the “duration of the inhibitory activity compared with physostigmine” value is on record as “last longer than that of physostigmine”; the “inhibition of the acetylcholinesterase activity, on the mouse brain” value (from here on “inhibition”) is listed as “dose-dependence, reversible inhibition”. Moreover, the “countering of the stimulating effect of scopolamine” value (shortened to “countering”) in data set [1] is “countered”. The “liver kinetics / excretion” value in data set [2] was “pass through into the urine unchanged”. Further, in the data set with mouse [3], the analgesic activity entry was “show also analgesic activity”. Moreover, the LD50 in [4] is recorded as 5 mg/kg.

Take `CN1CC[C@@]2(C)c3cc(OC(=O)NN4CCNCC4)ccc3N(C)[C@@H]12` [ESE002, (3-aS-cis)-1,2,3,3a,8,8a-hexahydro 1,3a,8-trimethylpyrrole [2,3-B]-indole 5-ol-1-piperazinyl-carbamate ester]: at acetylcholinesterase, the “suppression of the enzymatic activity” value is “do not suppress the enzymatic activity”; the “duration of the inhibitory activity compared with physostigmine” value is listed as “last longer than that of physostigmine”; the “inhibition” value is “dose-dependence, reversible inhibition”. Further, in data set [1], the “countering” value is “countered”. In addition, the “liver kinetics / excretion” value in data set [2] was “pass through into the urine unchanged”. For the same molecule, the analgesic activity result with mouse [3] is listed as “show also analgesic activity”. The molecule further registered an LD50 in [4] (1440 min) of less than 80 mg/kg. The same molecule returned an LD50 at 24 h in data set [4] of more than 40 mg/kg.

In the case of `CN1CC[C@@]2(C)c3cc(OC(=O)NN4CCOCC4)ccc3N(C)[C@@H]12` [ESE003, (3-aS-cis)-1,2,3,3a,8,8a-hexahydro 1,3a,8-trimethylpyrrole [2,3-B]-indole 5-ol-1-morpholinyl-carbamate ester], at acetylcholinesterase, the “suppression of the enzymatic activity” value was “do not suppress the enzymatic activity”; the “duration of the inhibitory activity compared with physostigmine” value is “last longer than that of physostigmine”; the “inhibition” value was “dose-dependence, reversible inhibition”. The “countering” value in [1] is “countered”. In addition, the “liver kinetics / excretion” value in [2] is recorded as “pass through into the urine unchanged”. In the data set on mouse [3], the analgesic activity entry was “show also analgesic activity”. Moreover, the LD50 in data set [4] (1440 min) is listed as less than 80 mg/kg. Moreover, the LD50 at 24 h in data set [4] is more than 40 mg/kg.

For the molecule `CN1CC[C@@]2(C)c3cc(OC(=O)NN4CCSCC4)ccc3N(C)[C@@H]12` [ESE004, (3-aS-cis)-1,2,3,3a,8,8a-hexahydro 1,3a,8-trimethylpyrrole [2,3-B]-indole 5-ol-1-thio-morpholinyl-carbamate ester], at acetylcholinesterase, the “suppression of the enzymatic activity” value is reported as “do not suppress the enzymatic activity”; the “duration of the inhibitory activity compared with physostigmine” value is “last longer than that of physostigmine”; the “inhibition” value was “dose-dependence, reversible inhibition”. Moreover, the “countering” value in [1] was “countered”. Also, in data set [2], the “liver kinetics / excretion” value is given as “pass through into the urine unchanged”. In addition, in the data set on mouse [3], the analgesic activity entry is reported as “show also analgesic activity”. The same molecule registered an LD50 in [4] (1440 min) of less than 80 mg/kg. In addition, the LD50 at 24 h in [4] is more than 40 mg/kg.

`CN1CC[C@@]2(C)c3cc(OC(=O)NN4CCN(CCO)CC4)ccc3N(C)[C@@H]12` [ESE005] had an LD50 in data set [4] (1440 min) of more than 40 mg/kg. In [4], the LD50 at 24 h is less than 80 mg/kg.

Take `CN1CC[C@@]2(C)c3cc(OC(=O)NN4CCCNCC4)ccc3N(C)[C@@H]12` [ESE006, (3-aS-cis)-1,2,3,3a,8,8a-hexahydro 1,3a,8-trimethylpyrrole [2,3-B]-indole 5-ol-homopiperazinylcarbamate ester]: the LD50 in [4] (1440 min) is reported as less than 80 mg/kg. In [4], this molecule showed an LD50 at 24 h of more than 40 mg/kg.

In the case of `CC1CCCC(C)N1NC(=O)Oc1ccc2c(c1)[C@]1(C)CCN(C)[C@@H]1N2C` (stereo partly drawn) [ESE007, (3-aS-cis)-1,2,3,3a,8,8a-hexahydro 1,3a,8-trimethylpyrrole [2,3-B]-indole 5-ol-1-(2,6-dimethyl) piperidine carbamate ester], the LD50 in [4] (1440 min) is less than 80 mg/kg. Also, the LD50 at 24 h in [4] is more than 40 mg/kg.

In data set [4] (1440 min), `CCCC1CN(NC(=O)Oc2ccc3c(c2)[C@]2(C)CCN(C)[C@@H]2N3C)CCO1` (stereo partly drawn) [ESE009, (3-aS-cis)-1,2,3,3a,8,8a-hexahydro 1,3a,8-trimethylpyrrole [2,3-B]-indole 5-ol-4-(3-propyl)-morpholinylcarbamate ester] gave an LD50 of less than 60 mg/kg. The molecule also showed an LD50 at 24 h in data set [4] of more than 30 mg/kg.

`CCCC1CCCN(NC(=O)Oc2ccc3c(c2)[C@]2(C)CCN(C)[C@@H]2N3C)C1C` (stereo partly drawn) [ESE010, (3-aS-cis)-1,2,3,3a,8,8a-hexahydro 1,3a,8-trimethylpyrrole [2,3-B]-indole 5-ol-1-(3-propyl)-2-pipecolinylcarbamate ester] returned an LD50 in data set [4] (1440 min) of less than 60 mg/kg. This molecule yielded an LD50 at 24 h in data set [4] of more than 30 mg/kg.

`CCCC1CCN(NC(=O)Oc2ccc3c(c2)[C@]2(C)CCN(C)[C@@H]2N3C)C1=O` (stereo partly drawn) [ESE011, (3-aS-cis)-1,2,3,3a,8,8a-hexahydro 1,3a,8-trimethylpyrrole [2,3-B]-indole 5-ol-1-(3-propyl)-2 pyrrolidone-carbamate ester] showed an LD50 in data set [4] (1440 min) of less than 60 mg/kg. This molecule yielded an LD50 at 24 h in data set [4] of more than 30 mg/kg.

Molecule `CN1CC[C@@]2(C)c3cc(OC(=O)NC4CN5CCC4CC5)ccc3N(C)[C@@H]12` (stereo partly drawn) [ESE012, (3-aS-cis)-1,2,3,3a,8,8a-hexahydro 1,3a,8-trimethylpyrrole [2,3-B]-indole 5-ol-3 quinuclidyl-carbamate ester] returned an LD50 in data set [4] (1440 min) of less than 60 mg/kg. In data set [4], this molecule showed an LD50 at 24 h of more than 30 mg/kg.

Consider `CN1CC[C@@]2(C)c3cc(OC(=O)N[C@H]4CCCCNC4=O)ccc3N(C)[C@@H]12` [MGT1, eseroline R-caprolactam carbamate], for which, in the data set on mouse [5], the “reduction of spontaneous motility” value is listed as approximately -39% and the “minimal doses causing a marked reduction of spontaneous motility” value (“minimal doses causing a marked reduction” below) fell in the range of 3.5 to 5 mg/kg. In data set [6], the “maximum peak in plasma” value stood at 36.14 ± 7.12 µg/mL and the “time of the maximum peak” value is recorded as 90 '. Further, the concentration in plasma in [6] (after 24 hours) amounted to 5090 ± 1710 ng/mL. Further, the concentration in plasma in [6] (time not given) is 17110 ± 3810 ng/mL. The LD50 at 168 h in [7] is 322 mg/kg.

For the molecule `CN1CCC2(C)c3cc(OC(=O)NC4CCCN(CCO)C4=O)ccc3N(C)C12` (stereo not shown) [MGT3, eseroline N-ethanol-2-piperidone-3 aminocarbamate], the “inhibitory activity of the acetylcholinesterase” value in data set [8] was “evident dose dipendent and reversible inhibitory activity”. For the same molecule, in the data set on mouse [5], the “reduction of spontaneous motility” value is approximately -39% and the “minimal doses causing a marked reduction” value was in the range of 3.5 to 5 mg/kg. In addition, the “LD50 in the mouse” value in the data set with mouse [9] was 383,7 ± 41,2 mg/kg.

For `CN1CC[C@@]2(C)c3cc(OC(=O)N[C@H]4C(O)O[C@H](CO)[C@@H](O)[C@@H]4O)ccc3N(C)[C@@H]12` (stereo partly drawn) [MGT4, eseroline N-D-glucosamine carbamate], in the data set on mouse [5], the “reduction of spontaneous motility” value is approximately -39% and the “minimal doses causing a marked reduction” value was 3.5 to 5 mg/kg. Further, the LD50 at 168 h in [7] was 398 mg/kg.

Take `CNC(=O)Oc1ccc2c(c1)[C@]1(C)CCN(C)[C@@H]1N2C` [Physostigmine, reference compound]: the LD50 at 24 h in data set [4] is 0.64 mg/kg. The “LD50 in the mouse” value with mouse [9] was 4,39 ± 1,14 mg/kg.

The values are drawn from patent EP0550007A2, “Eseroline derivatives having anticholinesterase activity, a process for their preparation and pharmaceutical compositions containing them” (priority 1991, dated 1993).
